{"source": "paper PMC12521909", "about": "“Camizestrant in Combination with Three Globally Approved CDK4/6 Inhibitors in Women with ER+, HER2− Advanced Breast Cancer: Results from SERENA-1” (Clinical Cancer Research, 2025)", "key": {"[1]": {"experiment": "Plasma pharmacokinetics by validated LC/MS-MS (cycle 1, day 15)", "assay_type": "in vivo", "details": "human, oral; for AUC / Cmax: Cycle 1 Day 15, geomean; for Tmax: Cycle 1 Day 15, median", "protocol": "Details of safety and efficacy assessments and of ctDNA sampling and assessments have been described previously ([37]). For PK analyses, plasma concentrations of camizestrant, abemaciclib, palbociclib, and ribociclib were determined using validated LC/MS-MS.\nDetails of assessments and analysis sets have been described previously ([38]). Briefly, safety was assessed in the safety analysis set, and efficacy and antitumor activity were assessed in the evaluable-for-response set. PK was assessed in the PK analysis set, which included all patients who provided at least one quantifiable postdose PK concentration for either camizestrant or any of the other agents evaluated."}, "[2]": {"system": "women with ER+, HER2− advanced breast cancer", "experiment": "Digital, centrally read triplicate ECGs (resting heart rate, QTcF)", "design": "species or system human", "details": "in vivo", "description": "Digital, centrally read, triplicate ECGs were obtained throughout the study."}, "[3]": {"details": "75 mg, camizestrant 75 mg monotherapy"}, "[4]": {"details": "150 mg, camizestrant 150 mg monotherapy"}, "[5]": {"details": "300 mg, camizestrant 300 mg monotherapy"}, "[6]": {"details": "camizestrant 75 mg + abemaciclib"}, "[7]": {"details": "camizestrant 75 mg + palbociclib"}, "[8]": {"details": "camizestrant 75 mg + ribociclib (400 mg)"}, "[9]": {"details": "camizestrant 75 mg + ribociclib (600 mg)"}, "[10]": {"details": "camizestrant 150 mg + abemaciclib"}, "[11]": {"details": "camizestrant 150 mg + palbociclib"}, "[12]": {"details": "camizestrant 300 mg + palbociclib"}}}
{"smiles": "C[C@@H]1Cc2c(ccc3[nH]ncc23)[C@@H](c2ccc(NC3CN(CCCF)C3)cn2)N1CC(F)(F)F", "note": "[camizestrant]", "values": [{"measurement": "AUC", "setting": "[1]; [3]", "value": 862, "unit": "ng·h/mL"}, {"measurement": "Cmax", "setting": "[1]; [3]", "value": 64.7, "unit": "ng/mL"}, {"measurement": "Tmax", "setting": "[1]; [3]", "value": 3.72, "unit": "h"}, {"measurement": "AUC", "setting": "[1]; [4]", "value": 2160, "unit": "ng·h/mL"}, {"measurement": "Cmax", "setting": "[1]; [4]", "value": 166, "unit": "ng/mL"}, {"measurement": "Tmax", "setting": "[1]; [4]", "value": 2.17, "unit": "h"}, {"measurement": "AUC", "setting": "[1]; [5]", "value": 4780, "unit": "ng·h/mL"}, {"measurement": "Cmax", "setting": "[1]; [5]", "value": 376, "unit": "ng/mL"}, {"measurement": "Tmax", "setting": "[1]; [5]", "value": 3, "unit": "h"}, {"measurement": "half-life", "setting": "[1]; across combinations, PK sampled up to 24 hours, likely underestimated, read-out: Estimated half-life of camizestrant", "value": "570 to 1020", "unit": "min"}, {"measurement": "AUC", "setting": "[1]; [6]", "value": 1120, "unit": "ng·h/mL"}, {"measurement": "Cmax", "setting": "[1]; [6]", "value": 85.4, "unit": "ng/mL"}, {"measurement": "Tmax", "setting": "[1]; [6]", "value": 4, "unit": "h"}, {"measurement": "AUC", "setting": "[1]; [7]", "value": 1200, "unit": "ng·h/mL"}, {"measurement": "Cmax", "setting": "[1]; [7]", "value": 93.9, "unit": "ng/mL"}, {"measurement": "Tmax", "setting": "[1]; [7]", "value": 4, "unit": "h"}, {"measurement": "AUC", "setting": "[1]; [8]", "value": 2280, "unit": "ng·h/mL"}, {"measurement": "Cmax", "setting": "[1]; [8]", "value": 154, "unit": "ng/mL"}, {"measurement": "Tmax", "setting": "[1]; [8]", "value": 3.6, "unit": "h"}, {"measurement": "AUC", "setting": "[1]; [9]", "value": 2750, "unit": "ng·h/mL"}, {"measurement": "Cmax", "setting": "[1]; [9]", "value": 179, "unit": "ng/mL"}, {"measurement": "Tmax", "setting": "[1]; [9]", "value": 4, "unit": "h"}, {"measurement": "AUC", "setting": "[1]; [10]", "value": 2050, "unit": "ng·h/mL"}, {"measurement": "Cmax", "setting": "[1]; [10]", "value": 159, "unit": "ng/mL"}, {"measurement": "Tmax", "setting": "[1]; [10]", "value": 4, "unit": "h"}, {"measurement": "AUC", "setting": "[1]; [11]", "value": 2420, "unit": "ng·h/mL"}, {"measurement": "Cmax", "setting": "[1]; [11]", "value": 189, "unit": "ng/mL"}, {"measurement": "Tmax", "setting": "[1]; [11]", "value": 3.92, "unit": "h"}, {"measurement": "AUC", "setting": "[1]; [12]", "value": 4940, "unit": "ng·h/mL"}, {"measurement": "Cmax", "setting": "[1]; [12]", "value": 386, "unit": "ng/mL"}, {"measurement": "Tmax", "setting": "[1]; [12]", "value": 4, "unit": "h"}, {"measurement": "Time of gradual decrease in resting HR to stable nadir", "setting": "[2]", "value": "approximately 14 days"}]}
